Results on eight molecules are retold here after US5468742A, “8-vinyl- and 9-ethinyl-quinolone-carboxylic acids” (Bayer Aktiengesellschaft, priority 1991, dated 1995).

Common to all, as to experiment: MIC, serial dilution on Iso-Sensitest agar
Holding throughout (format): cell-based

Test [1] has as its system Enterococcus faecalis 9790. On the procedure:
(§1) The minimum inhibitory concentrations (MIC) were determined on Iso-Sensitest agar (Oxoid) using the serial dilution method. For each test substance, a series of agar plates was prepared which contained concentrations of the active compound which decreased as the dilution was doubled. The agar plates were inoculated using a multipoint inoculator (Denley). The inocula used were overnight cultures of the pathogens which had previously been diluted to such an extent that each inoculation point contained approx. 10^4 colony-forming units. The inoculated agar plates were incubated at 37° C., and growth of the pathogens was determined after approx. 20 hours. The MIC value (μg/ml) indicates the lowest concentration of active compound where no growth was discernible to the naked eye.
(§2) The table below lists the MIC values of some of the compounds according to the invention compared with ciprofloxacin.

Test [2] has as its system Staphylococcus aureus ICB 25701. Here is the method: as §1, §2
Test [3] concerns Staphylococcus aureus 1756. Here is the method:
as §1, §2

The subject of a further test is E. coli Neumann. The note with it: Escherichia coli. On the procedure: as §1, §2
In the next test the test system is Micrococcus luteus 9341. On the procedure:
as §1, §2

Test [4] concerns Enterococcus faecalis 27101. On the procedure: as §1, §2
The test system of test [5] is Staphylococcus aureus 133. On the procedure: as §1, §2
Test [6] has as its system Acinetobacter calcoaceticus 14068. On the procedure: as §1, §2
Setting [7] is: Enterococcus faecalis 9790, approx. 10^4 CFU per inoculation point, 37° C., approx. 20 hours, read-out: MIC.
The mark [8] stands for this setting: ICB25701, Staphylococcus aureus ICB 25701, approx. 10^4 CFU per inoculation point, 37° C., approx. 20 hours, read-out: MIC.
The mark [9] stands for this setting: Staphylococcus aureus 1756, approx. 10^4 CFU per inoculation point, 37° C., approx. 20 hours, read-out: MIC.
The mark [10] stands for this setting: E. coli Neumann, approx. 10^4 CFU per inoculation point, 37° C., approx. 20 hours, read-out: MIC.
The mark [11] stands for this setting: Micrococcus luteus 9341, approx. 10^4 CFU per inoculation point, 37° C., approx. 20 hours, read-out: MIC.
[12] abbreviates: Enterococcus faecalis 27101, approx. 10^4 CFU per inoculation point, 37° C., approx. 20 hours, read-out: MIC.
Setting [13] is: Staphylococcus aureus 133, approx. 10^4 CFU per inoculation point, 37° C., approx. 20 hours, read-out: MIC.
The mark [14] stands for this setting: Acinetobacter calcoaceticus 14068, approx. 10^4 CFU per inoculation point, 37° C., approx. 20 hours, read-out: MIC.

By MIC is commonly meant the lowest concentration that inhibits growth of the organism.

Converted amounts (≈) assume the structure as drawn. Like-named read-outs stand apart in the source and are kept apart here.

On to `CC#Cc1c(N2CC3NCCOC3C2)c(F)cc2c(=O)c(C(=O)O)cn(C3CC3)c12` (centres unmarked) [Example 8, 1-cyclopropyl-6-fluoro-1,4-dihydro-7-(2-oxa-5,8-diazabicyclo[4.3.0]non-8-yl)-4-oxo-8-(propin-1-yl)-3-quinolinecarboxylic acid], for which the MIC in test [1] (setting [7]) was determined as 1 µg/mL (≈ 2.43 µM); in test [2] (setting [8]), 4 µg/mL (≈ 9.72 µM); in test [3] (setting [9]), 0.13 µg/mL (≈ 0.316 µM); in the test with E. coli Neumann (setting [10]) it was 0.25 µg/mL (≈ 0.608 µM); in the test on Micrococcus luteus 9341 (setting [11]) it was 2 µg/mL (≈ 4.86 µM); in test [4] (setting [12]), 0.5 µg/mL (≈ 1.22 µM). Further, the MIC in test [5] (setting [13]) was 0.13 µg/mL (≈ 0.316 µM); in test [6] (setting [14]) it was 0.5 µg/mL (≈ 1.22 µM).

For the molecule `C#Cc1c(N2C[C@@H]3CCCN[C@@H]3C2)c(F)cc2c(=O)c(C(=O)O)cn(C3CC3)c12` (relative stereo) [Example 5, 1-cyclopropyl-7-(cis-2,8-diazabicyclo[4.3.0]non-8-yl)-8-ethinyl-6-fluoro-1,4-dihydro-4-oxo-3-quinolinecarboxylic acid], the MIC in test [1] (setting [7]) amounted to 0.13 µg/mL (≈ 0.329 µM); in test [2] (setting [8]), 1 µg/mL (≈ 2.53 µM); in test [3] (setting [9]), 0.03 µg/mL (≈ 0.0759 µM); in the test with E. coli Neumann (setting [10]), 0.02 µg/mL (≈ 0.0506 µM); in the test on Micrococcus luteus 9341 (setting [11]), 0.5 µg/mL (≈ 1.26 µM); in test [4] (setting [12]), 0.13 µg/mL (≈ 0.329 µM). The MIC is 0.13 µg/mL (≈ 0.329 µM) in test [5] (setting [13]) and 0.03 µg/mL (≈ 0.0759 µM) in test [6] (setting [14]).

`C#Cc1c(N2CC3CC=CC(NC)C3C2)c(F)cc2c(=O)c(C(=O)O)cn(C3CC3)c12` (centres unmarked) [Example 13, 1-cyclopropyl-8-ethinyl-6-fluoro-1,4-dihydro-7-(4-methylamino-1,3,3a,4,7,7a-hexahydroisoindol-2-yl)-4-oxo-3-quinolinecarboxylic acid]: the MIC in test [1] (setting [7]) is 0.13 µg/mL (≈ 0.308 µM); in test [2] (setting [8]), 0.25 µg/mL (≈ 0.593 µM); in test [3] (setting [9]), 0.06 µg/mL (≈ 0.142 µM); in the test on E. coli Neumann (setting [10]) it was 0.13 µg/mL (≈ 0.308 µM); in the test on Micrococcus luteus 9341 (setting [11]), 0.25 µg/mL (≈ 0.593 µM); in test [4] (setting [12]) it was 0.13 µg/mL (≈ 0.308 µM). Besides, the MIC was 0.06 µg/mL (≈ 0.142 µM) in test [5] (setting [13]) and 0.13 µg/mL (≈ 0.308 µM) in test [6] (setting [14]).

Turning to `O=C(O)c1cn(C2CC2)c2cc(N3CCNCC3)c(F)cc2c1=O` [Ciprofloxacin, ciprofloxacin, reference compound], the MIC is 0.5 µg/mL (≈ 1.51 µM) in test [1] (Enterococcus faecalis, 9790, 20 h); 16 µg/mL (≈ 48.3 µM) in test [2] (Staphylococcus aureus, ICB25701, 20 h); 0.25 µg/mL (≈ 0.754 µM) in test [3] (Staphylococcus aureus, 1756, 20 h); 0.02 µg/mL (≈ 0.0604 µM) in the test on E. coli Neumann (20 h); 2 µg/mL (≈ 6.04 µM) against Micrococcus luteus 9341 (Micrococcus luteus, 9341, 20 h); 0.5 µg/mL (≈ 1.51 µM) in test [4] (Enterococcus faecalis, 27101, 20 h). Also, the MIC in test [5] (Staphylococcus aureus, 133, 20 h) was 0.25 µg/mL (≈ 0.754 µM); in test [6] (Acinetobacter calcoaceticus, 14068, 20 h), 0.25 µg/mL (≈ 0.754 µM).

`C=C(C)C#Cc1c(N2CCN(C)CC2)c(F)cc2c(=O)c(C(=O)O)cn(C3CC3)c12` [Example 14, 1-cyclopropyl-6-fluoro-1,4-dihydro-8-(3-methyl-but-3-en-1-inyl)-7-(4-methyl-1-piperazinyl)-4-oxo-3-quinolinecarboxylic acid]: the MIC in test [1] (setting [7]) is 1 µg/mL (≈ 2.44 µM); in test [2] (setting [8]) it was 32 µg/mL (≈ 78.2 µM); in test [3] (setting [9]), 0.02 µg/mL (≈ 0.0488 µM); in the test with E. coli Neumann (setting [10]) it was 0.02 µg/mL (≈ 0.0488 µM); with Micrococcus luteus 9341 (setting [11]), 8 µg/mL (≈ 19.5 µM); in test [4] (setting [12]) it was 1 µg/mL (≈ 2.44 µM). Besides, the figures for the MIC in test [5] (setting [13]) and in test [6] (setting [14]) were 0.02 µg/mL (≈ 0.0488 µM) and 0.03 µg/mL (≈ 0.0733 µM), respectively.

For the molecule `C#Cc1c(N2CCN(C)CC2)c(F)cc2c(=O)c(C(=O)O)cn(C3CC3)c12` [Example 1, 1-cyclopropyl-8-ethinyl-6-fluoro-1,4-dihydro-7-(4-methyl-1-piperazinyl)-4-oxo-3-quinolinecarboxylic acid], the MIC came to 0.25 µg/mL (≈ 0.677 µM) in test [1] (setting [7]); 4 µg/mL (≈ 10.8 µM) in test [2] (setting [8]); 0.13 µg/mL (≈ 0.352 µM) in test [3] (setting [9]); 0.02 µg/mL (≈ 0.0541 µM) with E. coli Neumann (setting [10]); 0.25 µg/mL (≈ 0.677 µM) in test [4] (setting [12]); 0.13 µg/mL (≈ 0.352 µM) in test [5] (setting [13]).

Take `C#Cc1c(N2CC3NCCOC3C2)c(F)cc2c(=O)c(C(=O)O)cn(C3CC3)c12` (centres unmarked) [Example 7, 1-cyclopropyl-8-ethinyl-6-fluoro-1,4-dihydro-7-(2-oxa-5,8-diazabicyclo[4.3.0]non-8-yl)-4-oxo-3-quinolinecarboxylic acid]: the MIC in test [1] (setting [7]) was 0.25 µg/mL (≈ 0.629 µM); in test [2] (setting [8]), 1 µg/mL (≈ 2.52 µM); in test [3] (setting [9]), 0.06 µg/mL (≈ 0.151 µM); in the test with E. coli Neumann (setting [10]), 0.13 µg/mL (≈ 0.327 µM); in the test on Micrococcus luteus 9341 (setting [11]), 1 µg/mL (≈ 2.52 µM); in test [4] (setting [12]), 0.25 µg/mL (≈ 0.629 µM). Moreover, the MIC in test [5] (setting [13]) was 0.06 µg/mL (≈ 0.151 µM); in test [6] (setting [14]), 0.25 µg/mL (≈ 0.629 µM).

Take `C=C(Cl)c1c(N2CCN(C)CC2)c(F)cc2c(=O)c(C(=O)O)cn(C3CC3)c12.Cl` [Example 17, 8-(1-chlorovinyl)-1-cyclopropyl-6-fluoro-1,4-dihydro-7-(4-methyl-1-piperazinyl)-4-oxo-3-quinolinecarboxylic acid hydrochloride]: the MIC in test [1] (setting [7]) stood at 0.25 µg/mL; in test [2] (setting [8]), 4 µg/mL; in test [3] (setting [9]), 0.13 µg/mL; with E. coli Neumann (setting [10]) it was 0.03 µg/mL; with Micrococcus luteus 9341 (setting [11]), 1 µg/mL; in test [4] (setting [12]), 0.25 µg/mL. Besides, the MIC was 0.13 µg/mL in test [5] (setting [13]) and 0.03 µg/mL in test [6] (setting [14]).
